The record followed here is US20210330807A1, “NOVEL HYDROGEL CONJUGATES” (priority 2018, published 2021).

The data set is described as follows: Stability of daptomycin in a transient daptomycin-linker hydrogel conjugate versus free daptomycin. The class given is physicochemical. The conditions noted are these: pH 7.4 and 37° C.; at day seven; UPLC peak area ratio at 215 nm. The protocol: The relative stability of the covalently bound daptomycin in a transient daptomycin-linker hydrogel conjugate towards hydrolytic and other degradation pathways in comparison to free daptomycin was investigated. […] The supernatant of the carrier sample was exchanged five times within a week and the daptomycin purity in these samples was analyzed by UPLC. In parallel, analytical samples of the free daptomycin control solution were also analyzed by UPLC at the same incubation times. The purity of daptomycin in the samples was calculated as the ratio of the peak area of the intact daptomycin peak at 215 nm relative to the area sum of all daptomycin-related peaks identified at 215 nm.

For the compound `CCCCCCCCCC(=O)N[C@@H](Cc1c[nH]c2ccccc12)C(=O)N[C@H](CC(N)=O)C(=O)N[C@@H](CC(=O)O)C(=O)N[C@@H]1C(=O)NCC(=O)N[C@@H](CCCN)C(=O)N[C@@H](CC(=O)O)C(=O)N[C@H](C)C(=O)N[C@@H](CC(=O)O)C(=O)NCC(=O)N[C@H](CO)C(=O)N[C@@H]([C@H](C)CC(=O)O)C(=O)N[C@@H](CC(=O)c2ccccc2N)C(=O)O[C@@H]1C` [daptomycin], the “purity of the free daptomycin in the solution control sample” value is recorded as 72%.
